{"source": "paper PMC8802628", "about": "“Selective activation of PFKL suppresses the phagocytic oxidative burst” (Cell, 2021)", "key": {"PFKL [1]": {"molecular_target": "T1, PFKL (Homo sapiens, UniProt P17858)", "T1 construct": "made in house; host or cells: Sf9 insect cells (baculovirus, Bac-to-Bac)", "T1 sequence (P17858 1-780)": "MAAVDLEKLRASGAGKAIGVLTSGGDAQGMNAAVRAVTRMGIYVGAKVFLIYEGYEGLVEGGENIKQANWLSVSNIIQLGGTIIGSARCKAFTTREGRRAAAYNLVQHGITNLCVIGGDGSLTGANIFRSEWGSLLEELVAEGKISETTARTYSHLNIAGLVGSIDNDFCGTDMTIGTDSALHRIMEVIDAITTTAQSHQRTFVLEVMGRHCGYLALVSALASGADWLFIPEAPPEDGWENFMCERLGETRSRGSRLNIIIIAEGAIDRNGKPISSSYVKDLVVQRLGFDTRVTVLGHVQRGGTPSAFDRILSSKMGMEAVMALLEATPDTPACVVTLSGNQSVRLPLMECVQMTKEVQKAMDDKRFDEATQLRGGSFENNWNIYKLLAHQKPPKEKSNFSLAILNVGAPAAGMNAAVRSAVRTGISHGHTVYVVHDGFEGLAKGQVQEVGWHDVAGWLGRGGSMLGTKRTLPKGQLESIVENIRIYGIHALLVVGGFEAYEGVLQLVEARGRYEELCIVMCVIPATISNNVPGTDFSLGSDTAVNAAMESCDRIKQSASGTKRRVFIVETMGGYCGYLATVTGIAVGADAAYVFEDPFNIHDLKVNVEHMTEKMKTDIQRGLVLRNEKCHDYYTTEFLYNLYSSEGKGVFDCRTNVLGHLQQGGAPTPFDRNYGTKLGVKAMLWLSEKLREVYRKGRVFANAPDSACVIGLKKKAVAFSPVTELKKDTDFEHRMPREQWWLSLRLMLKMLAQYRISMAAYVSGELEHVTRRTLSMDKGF", "experiment": "Thermal inactivation assay of PFKL", "format": "biochemical", "settings": "35°C; 200 μM FBP, 200 nM NA-11", "experimental": "Thermal inactivation assays were performed as previously described for PFKP, with modifications to account for the decreased stability of PFKL ([Sánchez-Martínez et al., 2000]). PFKL was diluted to 10 ng/mL, with a final buffer composition of 53.3 mM HEPES, 100 mM KCl, 0.167 mM DTT, 83.3 μM ammonium sulfate, 0.83% glycerol, 0.170 mM ATP, and 16.7 mM EDTA. Samples were incubated at 35°C. At the times indicated, samples were removed and residual PFK1 activity measured using the PK/LDH auxiliary enzyme assay described above with 125 μM ATP and 5 mM F6P. To determine if small molecule ligands altered PFKL stability, 200 μM FBP and 200 nM NA-11 were added."}, "[2]": {"system": "human bronchial epithelial cells (HBECs)", "experiment": "Epithelial barrier tissue damage assay (FITC-dextran)", "format": "cell-based", "settings": "PMA-activated neutrophils on HBECs", "experimental": "Human bronchial epithelial cells (HBECs) (4 × 10^4 in […] complete PneumaCult-Ex plus medium) were added to a HTS Transwell-96 permeable support plate (polyester membrane with a 0.4 μm pores) and immersed in receiver plates containing 150 μL of complete PneumaCult-Ex plus medium for 3 days. The medium on confluent monolayers was then replaced with RPMI medium containing neutrophils (4 × 10^4) in RPMI buffer that were previously treated with 5 μM NA-11, 100 μM apocynin, 5 μM NA-4, or DMSO vehicle and then activated with 100 nM PMA. The transwell plate was cultured in a new receiver plate containing 150 μL Hank’s balanced salt solution (HBSS) for 2 h. 10 μL of DMEM supplemented with 5% FBS and 2 mM L-glutamine were added to each well and the plate was incubated for additional 18 h. To measure the permeability of the epithelial barrier, FITC-dextran (200 μg/mL) and DNase-1 (22 Units/mL) were added to the apical side for 1 h. FITC-dextran in the receiver plate was measured (ex: 494 em: 521)."}, "PMNs [3]": {"system": "PMNs", "experiment": "ROS detection assay (ROS-Glo) in neutrophils", "format": "cell-based, human", "experimental": "ROS were measured using the ROS-Glo bioluminescent assay (Promega) for the direct detection of H2O2. Briefly, neutrophils (2 × 10^4) were plated in white 96-well plates (Greiner) in high glucose DMEM medium. Cells were cultured with DMSO vehicle, 0.5 μM NA-11, 5 μM LDC7559, 100 μM apocynin, or 200 μM thionicotinamide for 30 min, and then stimulated with 50 nM PMA or treated with 10 μg/mL zymosan beads, pre-opsonized in 20% serum for 30 min. Luminescence, after the addition of H2O2 substrate solution of 20 min, and then ROS-Glo detection solution for 20 min, was recorded on a plate reader (Envision)."}, "PFKL [4]": {"molecular_target": "T1, PFKL", "experiment": "Recombinant PFKL activity assay (relief of ATP inhibition)", "format": "biochemical", "settings": "3.1 mM ATP", "excerpt": "Recombinant N-terminal His-tagged human PFKL (NP_002617), PFKM (NP_000280), and PFKP (NM_002627.4) were generated as described ([Webb et al., 2015], [2017]). Point mutants of PFK1 were generated using the QuikChange Lightning kit (Aligent).\nHis-tagged PFK1 was expressed and purified as described with slight modifications ([Webb et al., 2015], [2017]). Briefly, baculovirus was generated using the Bac-to-Bac Expression system (Invitrogen). PFK1 was expressed in 2-5 × 10^6 sf9 cells at a multiplicity of infection of two for 48 h. Cells were lysed in 20 mM HEPES, pH 7.5, 80 mM potassium phosphate, 1 mM 2-mercapentoethanol, 10% glycerol, 10 mM imidazole, and EDTA-free Protease Inhibitor Cocktail (Abcam) with a Dounce homogenizer. The soluble lysate was incubated with HisPur cobalt resin (ThermoFisher Scientific). The resin was washed with 5 bead volumes lysis buffer, 10 bead volumes lysis buffer containing 2 M NaCl, and 5 further bead volumes lysis buffer. PFK1 was eluted in lysis buffer containing 100 mM imidazole. Fractions containing protein were pooled, passed over a desalting column equilibrated in freezing buffer [20 mM HEPES pH 7.5, 1 mM DTT, 500 μM ammonium sulfate, 5% glycerol, 1 mM ATP, and 100 μM EDTA] and concentrated using an Amicon Ultracel-30K Centrifugal Filter Unit (MilliporeSigma). Protein was quantified using a Bradford Protein Assay kit (ThermoFisher Scientific), and aliquotes frozen in liquid nitrogen for storage at −80°C.\nPFK1 activity was determined using the rate of FBP production via an auxiliary enzyme assay adapted to a 96-well format ([Brüser et al., 2012]; [Webb et al., 2015]). The auxiliary enzymes aldolase, triosephosphate isomerase, and glycerol phosphate dehydrogenase were purchased from MilliporeSigma as ammonium sulfate slurries and desalted using an Amicon Ultracel-10K Centrifugal Filter Unit. For assays containing FBP, the rate of ADP production was determined using the auxiliary enzymes pyruvate kinase (PK) and lactate dehydrogenase (LDH) (MilliporeSigma) in a buffer containing 250 μM phosphoenolpyruvic acid, […] NADH, 50 mM HEPES pH 7.5, 100 mM KCl, 1 mM DTT, and effector concentrations as described in the text. The temperature was equilibrated to 25°C for 5 min before initiating the reaction 10 mM MgCl2. Absorbance at 340 nm was measured using a Varioskan LUX Multimode microplate reader (ThermoFisher). Kinetic parameters were generated by nonlinear regression analysis using Prism (GraphPad Software) and are the mean of a minimum of three measurements from two independent preparations of protein. One unit of activity was defined as the amount of enzyme that catalyzed the formation of 1 μmol of fructose 1,6-bisphosphate per min at 25°C. Assays for PFKM were performed at pH 7.0 due to the pH-dependence of ATP inhibition ([Trivedi and Danforth, 1966])."}, "[5]": {"system": "human peripheral blood neutrophils", "experiment": "NETosis assay in human neutrophils (SYTOX Green, DNA area)", "format": "cell-based", "settings": "PMA; SAR analogs compared to LDC7559", "experimental": "Freshly purified neutrophils were plated at 6 × 10^3 cells/well in glass bottom 96-well plates (SensoPlate, Greiner Bio-One 82050-792) in the RPMI medium described above. Cells were pretreated with DMSO vehicle, 0.5 μM NA-11, 100 μM apocynin, 0.5 μM and 5 μM PALP, or 0.5 μM and 5 μM LDC7559 for 30 min, and then stimulated with 50 nM PMA, 1 μM f-MLP, 5 μg/mL cholesterol crystals, 10 μg/mL LPS, 25 μM nigericin, or 25 μM calcymicin (A23187) for 3 h (except in Figures S1A, 6A and S7C, where cells were stimulated for 4 h). Cells were fixed and permeabilized in 2.5% paraformaldehyde (PFA) and 0.02% Triton X-100 in PBS for 30 min. For quantification of NETosis, cells were stained with 150 nM SYTOX Green and imaged in a KEYENCE Fluorescence Microscope (KEYENCE, ZB-X800E) at 10 x magnification. For immunolabeling, fixed cells were blocked with 2% BSA for 1 h, and then stained with anti-CitH3 and anti-MPO antibodies at a dilution of 1/200 in 1% BSA in PBS. Images were taken at 60 x magnification using an ImageXpress Micro Confocal high-content imaging system (Molecular Devices).\nSemi-automated analysis of both phase and fluorescence images of SYTOX Green-stained neutrophils used a specialized MATLAB algorithm. Total cells were counted by scoring phase standard deviation and radial symmetry. NETosis was classified in cells by measuring the DNA area in the fluorescence image and comparing with a select internal training set for each experiment. Unstimulated cells and PMA-stimulated, […] cells served as negative controls. PMA-stimulated cells served as a positive control. NET-forming cells are presented as a percentage of total cells."}, "E. coli": {"system": "E. coli", "experiment": "Phagocytosis assay: E. coli C.F.U. recovered from PMNs", "format": "cell-based, human", "settings": "neutrophils pretreated 30 min", "experimental": "Neutrophils (1 × 10^6) were cultured in 6-well tissue in RPMI medium containing DMSO vehicle, 0.5 μM NA-11, 0.5 μM NA-4, 100 μM Apocynin or 100 μM thionicotinamide (TN) for 30 min. E. coli grown in LB broth overnight (2 mL) were opsonized with human serum (1 mL pooled from three donors) for 1 h at room temperature. Opsonized bacteria were washed with PBS, resuspended in LB broth to an OD600of 0.1 and then added to cultured neutrophils at an MOI of 1 for 30 min. Cells were washed with medium three times and then cultured with 300 μg/mL gentamicin for 2 h to kill any extracellular bacteria. Cells were then washed again, twice with medium and once with PBS. To release phagocytosed bacteria, neutrophils were lysed in 0.05% saponin in PBS. Lysates were passed through a 25’ gauge needed several times and the number of viable phagocytosed bacteria was determined by colony counting."}, "PMNs [6]": {"system": "PMNs", "experiment": "NADPH/NADP+ detection assay in neutrophils", "format": "cell-based, human", "settings": "pretreatment, PMA-activated neutrophils", "experimental": "The ratio of NADPH/NADP^+ (or NADH/NAD^+) was calculated after measuring the individual concentrations of NADPH and NADP^+ (or NADH and NAD^+) with NADP/NADPH-Glo (or NAD/NADH-Glo) assays (Promega). […] Cells were lysed in plates by addition of 1% dodecyltrimethylammonium bromide (DTAB). To measure NADPH, half of the samples was heated at 60 °C for 30 min. The other half was treated with HCl before heating to 60°C, to measure NADP^+. All samples were neutralized before adding luciferase detection reagent, then incubated for 1 h with gentle shaking. Luminescence was recorded on a plate reader (Envision)."}, "GSDMD": {"molecular_target": "T2, GSDMD (Homo sapiens, UniProt P57764)", "T2 sequence (P57764 1-484)": "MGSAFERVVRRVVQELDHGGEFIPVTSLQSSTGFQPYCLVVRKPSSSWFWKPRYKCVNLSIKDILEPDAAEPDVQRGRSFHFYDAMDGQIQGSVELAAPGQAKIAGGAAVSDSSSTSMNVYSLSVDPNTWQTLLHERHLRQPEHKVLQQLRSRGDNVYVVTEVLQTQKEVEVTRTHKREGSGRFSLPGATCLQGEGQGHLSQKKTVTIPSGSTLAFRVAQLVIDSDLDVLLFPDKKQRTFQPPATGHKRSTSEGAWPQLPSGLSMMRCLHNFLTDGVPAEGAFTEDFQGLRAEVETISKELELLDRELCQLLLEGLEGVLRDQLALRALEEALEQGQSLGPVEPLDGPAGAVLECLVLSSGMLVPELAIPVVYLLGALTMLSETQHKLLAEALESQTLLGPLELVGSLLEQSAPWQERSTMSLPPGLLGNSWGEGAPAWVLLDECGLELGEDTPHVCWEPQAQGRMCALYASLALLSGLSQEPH", "experiment": "TR-FRET liposome cargo release (GSDMD pore formation)", "format": "biochemical", "settings": "10 μM", "experimental": "GSDMD-dependent liposome cargo release was conducted by Confluence Discovery Technologies with modifications to the procedure described previously ([Aglietti et al., 2016]). Briefly, liposomes with an encapsulated cargo of europium-chelate conjugated biotin were formed from a lipid mixture of DOPC:DOPE (1:1). 0.15 mg/mL of cargo-loaded liposomes were mixed with 0.3 μM of recombinant GSDMD and incubated with 10 μM LDC7559, 10 μM disulfiram or DMSO vehicle. 0.15 μM caspase-4 and 50 nM streptavidin-Alexa Fluor 647 were added and TR-FRET was read over 1 h using a PHERAstar FSX Microplate Reader (BMG Labtech) equipped with a TR-FRET module."}}, "data": [{"smiles": "O=C(COP(=O)(O)O)[C@@H](O)[C@H](O)[C@H](O)COP(=O)(O)O", "note": "[FBP, fructose 1,6-bisphosphate]", "values": [{"measurement": "protection of PFKL from thermal inactivation", "setting": "PFKL [1]", "result": "protected PFKL from thermal inactivation"}]}, {"smiles": "COc1ccccc1-c1cc2n(n1)Cc1ccc(N)cc1OC2", "note": "[NA-4]", "values": [{"measurement": "protection of epithelial layer from neutrophil-induced oxidative damage", "setting": "[2]", "result": "did not"}, {"measurement": "ROS production during phagocytosis of opsonized zymosan", "setting": "PMNs [3]; over 2 h", "result": "did not suppress ROS production"}, {"measurement": "activation of PFKL", "setting": "PFKL [4]", "result": "did not activate PFKL"}, {"measurement": "inhibition of PMA-induced NETosis", "setting": "[5]", "result": "no inhibitor activity"}]}, {"smiles": "COc1cc(C(C)=O)ccc1O", "note": "[apocynin, reference compound]", "values": [{"measurement": "protection of epithelial layer from neutrophil-induced oxidative damage", "setting": "[2]", "result": "protected the epithelial layer"}, {"measurement": "PMA-induced ROS production", "setting": "PMNs [3]; 50 nM PMA", "result": "prevented"}, {"measurement": "killing of phagocytosed bacteria (bacterial colonies recovered)", "setting": "E. coli", "result": "less efficient killers of phagocytosed bacteria"}, {"measurement": "ratio of NADPH/NADP+", "setting": "PMNs [6]", "result": "roughly twice that of untreated cells"}]}, {"smiles": "CCN(CC)C(=S)SSC(=S)N(CC)CC", "note": "[disulfiram]", "values": [{"measurement": "liposome permeabilization by GSDMD pore-forming fragment", "setting": "GSDMD", "result": "prevented liposome permeabilization"}]}]}
